This is an account of results in US20100048617A1, “COMPOUNDS” (SmithKline Beecham Corp., priority 2006, published 2010).

Where a name gives a salt, the structure may show the parent alone.

In this test the target is T1, SCD (SCD-containing rat microsomes) (Rattus norvegicus, UniProt P07308).
T1 construct: SCD-containing rat microsomes (2 μg protein); from tissue
T1 sequence (P07308 1-358): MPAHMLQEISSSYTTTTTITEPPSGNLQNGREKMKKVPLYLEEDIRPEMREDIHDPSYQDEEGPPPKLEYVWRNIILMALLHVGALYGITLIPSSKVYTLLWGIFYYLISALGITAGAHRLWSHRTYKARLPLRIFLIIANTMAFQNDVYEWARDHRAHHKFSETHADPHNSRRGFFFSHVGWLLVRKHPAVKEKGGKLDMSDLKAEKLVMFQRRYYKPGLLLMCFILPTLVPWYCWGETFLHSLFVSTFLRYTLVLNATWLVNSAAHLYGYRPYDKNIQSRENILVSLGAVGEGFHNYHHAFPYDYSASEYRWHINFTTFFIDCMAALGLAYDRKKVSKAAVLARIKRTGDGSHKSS
Put plainly: in vitro assay for SCD activity based on production of [3H]H2O from [9,10-3H] stearoyl Coenzyme A. It is filed as biochemical. Particulars: SCD-containing rat microsomes (2 μg protein), substrate 1 μM, 6 min incubation, 5 min preincubation with compound; read-out: average pIC50 value (converted). The protocol:
The compounds of the present invention may be analysed in vitro for SCD activity using an assay based on the production of [^3H]H2O, which is released during the enzyme-catalyzed generation of the monounsaturated fatty acyl CoA product. The assay is performed in a 96-well filtration plates. The titrated substrate used in the assay is the [9,10-^3H] stearoyl Coenzyme A. After incubation for 6 minutes of SCD-containing rat microsomes (2 μg protein) and substrate (1 μM), the labelled fatty acid acyl-CoA species and microsomes are absorbed with charcoal and separated from [^3H]H2O by centrifugation. The formation of [^3H]H2O is used as a measure of SCD activity. Compounds at concentrations starting at 10 μM to 0.1 nM or vehicle (DMSO) are preincubated for 5 minutes with the microsomes before addition of the substrate. The concentration-responses are fitted with sigmoidal curves to obtain IC50 values.

On to `COc1ccc(Cl)cc1Cn1nc(C(=O)Nc2ccc3c(c2)CCNC3)cc1C` [1-{[5-chloro-2-(methyloxy)phenyl]methyl}-5-methyl-N-(1,2,3,4-tetrahydro-6-isoquinolinyl)-1H-pyrazole-3-carboxamide hydrochloride], for which the IC50 is 3.16 to 10 µM.
In the case of `COc1ccc(OCC(C)C)c(Cn2nc(C(=O)Nc3ccc4c(c3)CCNC4)cc2C)c1` [5-methyl-1-({5-(methyloxy)-2-[(2-methylpropyl)oxy]phenyl}methyl)-N-(1,2,3,4-tetrahydro-6-isoquinolinyl)-1H-pyrazole-3-carboxamide hydrochloride] it was above 10 µM.
